Measured values as given in US4701448A, “Metal salt of organic phosphate and an antihyperlipemic agent containing the same” (Asahi Denka Kogyo Kabushiki Kaisha, priority 1985, dated 1987).
Structures can show the parent of a compound that is named as a salt.

Key:
serum cholesterol = experiment: Serum cholesterol lowering activity, oral, rabbit, 5 successive days; format: in vivo; details: two times a day, 5 days
Procedure: (1) Serum cholesterol lowering activity the metal salt of organic phosphate according to the present invention was orally administered to a rabbit (body weight of about 3 Kg) two times a day (at 9:00 a.m. and 4:00 p.m.) for 5 successive days. After 5 days, blood was sampled and the total cholesterol value in serum was measured in a conventional manner.

[1] = Stability, 5 weeks at 45° C. and humidity of 80% (HPLC remaining rate); format: physicochemical; details: after 5 weeks, humidity of 80%; for remaining at 840 h: solid, 80% humidity; for Remaining rate: 50400 min
Procedure: One gram each of CB3A, CK3A and various metal salts thereof was placed in a beaker and the beaker was allowed to stand for 5 weeks in a constant temperature and humidity bath controlled at a temperature of 45° C. and a humidity of 80%. After 5 weeks, a remaining rate of the compound was analyzed quantitatively with a high performance liquid chromatography "Tri rotar" manufactured by Nippon Bunko K. K. (Japan).
A0 = initial amount of the compound prior to standing in the constan
temperature and humidity bath
A1 = final amount of the compound after 5 weeks

[2] = Water solubility, hygroscopic property and stability (statements in words); format: physicochemical
synthesis of cholesterol = details: in words; Japanese Patent Application No. 165490/1983, J. Antibiotics 38, 328-332 (1985); cited from earlier work
mouse = experiment: Acute toxicity, mouse; format: in vivo
Description: (§1) The acute toxicity of the metal salt of CB3A and of CK3A was examined by orally or peritoneally administrating an aqueous solution or dispersion thereof the results are shown in Table 2.
(§2) a . . . per os (oral administration)
(§3) b . . . intraperitoneal injection

rat = experiment: Acute toxicity, rat; format: in vivo
Description: as §1, §2, §3

Acute toxicity, mouse = format: in vivo; details: in vivo
Description: as §1, §2, §3

Acute toxicity, rat = format: in vivo; details: in vivo
Description: as §1, §2, §3

[3] = Absorbability and effect (statement in words)

SMILES | Total Serum cholesterol lowering rate (serum cholesterol; 1.5 mg/kg/day) [%] | Total Serum cholesterol lowering rate (serum cholesterol; 6 mg/kg/day) [%] | stability [2] | water solubility [2] | hygroscopic property [2] | LD50 (mouse; intraperitoneal injection) [mg/kg] | LD50 (mouse; per os (oral administration)) [mg/kg] | LD50 (rat; intraperitoneal injection) [mg/kg] | LD50 (rat; per os (oral administration)) [mg/kg] | Remaining rate [1] [%] | also measured
CCC(C)C(=O)OC1CCC=C2C=CC(C)C(CCC(CC(O)CC(=O)OC)OP(=O)(O)O)C21 (centres unmarked) [CB3A methyl ester-2K salt, Dipotassium salt of CB3A methyl ester] | 19.5 | 33.8 | excellent | excellent | – | – | – | – | – | – | remaining at 840 h [1]: 84%
CCC(C)C(=O)OC1CCC=C2C=CC(C)C(CCC(CC(O)CC(=O)OC)OP(=O)(O)O)C21 (centres unmarked) [CB3A methyl ester-Ca salt, Calcium salt of CB3A methyl ester] | 23.0 | 40.6 | particularly excellent | – | no hygroscopic property | – | – | – | – | – | –
CCC(C)C(=O)OC1CCC=C2C=CC(C)C(CCC(CC(O)CC(=O)OC)OP(=O)(O)O)C21 (centres unmarked) [CB3A methyl ester] | – | – | – | – | – | – | – | – | – | – | activity of inhibiting the synthesis of cholesterol (synthesis of cholesterol): strong activity of inhibiting the synthesis of cholesterol
CCC(C)C(=O)OC1CCC=C2C=CC(C)C(CCC(CC(O)CC(=O)O)OP(=O)(O)O)C21 (centres unmarked) [CB3A-1.5Ba salt, Sesquibarium salt of CB3A] | 21.3 | 36.6 | particularly excellent | – | no hygroscopic property | – | – | – | – | – | –
CCC(C)C(=O)OC1CCC=C2C=CC(C)C(CCC(CC(O)CC(=O)O)OP(=O)(O)O)C21 (centres unmarked) [CB3A-1.5Ca salt, Sesquicalcium salt of CB3A] | 23.2 | 40.2 | particularly excellent | – | no hygroscopic property | > 500 | > 2000 | > 500 | > 2000 | 97 | –
CCC(C)C(=O)OC1CCC=C2C=CC(C)C(CCC(CC(O)CC(=O)O)OP(=O)(O)O)C21 (centres unmarked) [CB3A-1.5Mg salt] | 21.1 | 36.3 | – | – | – | – | – | – | – | – | –
CCC(C)C(=O)OC1CCC=C2C=CC(C)C(CCC(CC(O)CC(=O)O)OP(=O)(O)O)C21 (centres unmarked) [CB3A-1K salt, Monopotassium salt of CB3A] | 19.6 | 33.7 | excellent | excellent | – | – | – | – | – | – | –
CCC(C)C(=O)OC1CCC=C2C=CC(C)C(CCC(CC(O)CC(=O)O)OP(=O)(O)O)C21 (centres unmarked) [CB3A-1Na salt] | – | – | – | – | – | – | – | – | – | 74 | –
CCC(C)C(=O)OC1CCC=C2C=CC(C)C(CCC(CC(O)CC(=O)O)OP(=O)(O)O)C21 (centres unmarked) [CB3A-2K salt, Dipotassium salt of CB3A] | 19.1 | 34.2 | excellent | excellent | – | – | – | – | – | – | –
CCC(C)C(=O)OC1CCC=C2C=CC(C)C(CCC(CC(O)CC(=O)O)OP(=O)(O)O)C21 (centres unmarked) [CB3A-2Na salt] | – | – | – | – | – | – | – | – | – | 78 | –
CCC(C)C(=O)OC1CCC=C2C=CC(C)C(CCC(CC(O)CC(=O)O)OP(=O)(O)O)C21 (centres unmarked) [CB3A-3K salt, Tripotassium salt of CB3A] | 19.4 | 33.9 | excellent | excellent | – | – | – | – | – | – | LD50 (Acute toxicity, mouse; ip, intraperitoneal injection): > 500 mg/kg; LD50 (Acute toxicity, mouse; per os (oral administration)): > 2000 mg/kg; LD50 (Acute toxicity, rat; ip, intraperitoneal injection): > 500 mg/kg; LD50 (Acute toxicity, rat; per os (oral administration)): > 2000 mg/kg
CCC(C)C(=O)OC1CCC=C2C=CC(C)C(CCC(CC(O)CC(=O)O)OP(=O)(O)O)C21 (centres unmarked) [CB3A-3Na salt, Trisodium salt of CB3A] | 18.5 | 34.3 | excellent | excellent | – | > 500 | > 2000 | > 500 | > 2000 | 82 | –
CCC(C)C(=O)OC1CCC=C2C=CC(C)C(CCC(CC(O)CC(=O)O)OP(=O)(O)O)C21 (centres unmarked) [CB3A-Al salt, Aluminum salt of CB3A] | 24.2 | 41.6 | particularly excellent | – | no hydroscopic property | > 500 | > 2000 | > 500 | > 2000 | 98 | –
CCC(C)C(=O)OC1CC(C)C=C2C=CC(C)C(CCC(CC(O)CC(=O)OC)OP(=O)(O)O)C21 (centres unmarked) [CK3A methyl ester-2K salt, Dipotassium salt of CK3A methyl ester] | 18.7 | 34.7 | excellent | excellent | – | – | – | – | – | – | remaining at 840 h [1]: 83%
CCC(C)C(=O)OC1CC(C)C=C2C=CC(C)C(CCC(CC(O)CC(=O)OC)OP(=O)(O)O)C21 (centres unmarked) [CK3A methyl ester-Ca salt, Calcium salt of CK3A methyl ester] | 24.9 | 39.2 | particularly excellent | – | no hygroscopic property | – | – | – | – | – | –
CCC(C)C(=O)OC1CC(C)C=C2C=CC(C)C(CCC(CC(O)CC(=O)OC)OP(=O)(O)O)C21 (centres unmarked) [CK3A methyl ester] | – | – | – | – | – | – | – | – | – | – | activity of inhibiting the synthesis of cholesterol (synthesis of cholesterol): strong activity of inhibiting the synthesis of cholesterol
CCC(C)C(=O)OC1CC(C)C=C2C=CC(C)C(CCC(CC(O)CC(=O)O)OP(=O)(O)O)C21 (centres unmarked) [CK3A, reference compound] | 9.7 | 24.4 | unstable | – | – | > 500 | > 2000 | > 500 | > 2000 | 13 | absorbability and effect [3]: unsatisfactory; activity of inhibiting the synthesis of cholesterol (synthesis of cholesterol): strong activity of inhibiting the synthesis of cholesterol
CCC(C)C(=O)OC1CC(C)C=C2C=CC(C)C(CCC(CC(O)CC(=O)O)OP(=O)(O)O)C21 (centres unmarked) [CK3A-1.5Ba salt, Sesquibarium salt of CK3A] | 21.1 | 36.6 | particularly excellent | – | no hygroscopic property | – | – | – | – | – | –
CCC(C)C(=O)OC1CC(C)C=C2C=CC(C)C(CCC(CC(O)CC(=O)O)OP(=O)(O)O)C21 (centres unmarked) [CK3A-1.5Ca salt, Sesquicalcium salt of CK3A] | 24.5 | 39.9 | particularly excellent | – | no hygroscopic property | > 500 | > 2000 | > 500 | > 2000 | 96 | –
CCC(C)C(=O)OC1CC(C)C=C2C=CC(C)C(CCC(CC(O)CC(=O)O)OP(=O)(O)O)C21 (centres unmarked) [CK3A-1.5Mg salt] | 22.1 | 36.3 | – | – | – | – | – | – | – | – | –
CCC(C)C(=O)OC1CC(C)C=C2C=CC(C)C(CCC(CC(O)CC(=O)O)OP(=O)(O)O)C21 (centres unmarked) [CK3A-3K salt, Tripotassium salt of CK3A] | 18.9 | 34.7 | excellent | excellent | – | – | – | – | – | 85 | LD50 (Acute toxicity, mouse; ip, intraperitoneal injection): > 500 mg/kg; LD50 (Acute toxicity, mouse; per os (oral administration)): > 2000 mg/kg; LD50 (Acute toxicity, rat; ip, intraperitoneal injection): > 500 mg/kg; LD50 (Acute toxicity, rat; per os (oral administration)): > 2000 mg/kg
CCC(C)C(=O)OC1CC(C)C=C2C=CC(C)C(CCC(CC(O)CC(=O)O)OP(=O)(O)O)C21 (centres unmarked) [CK3A-3Na salt, Trisodium salt of CK3A] | 17.1 | 30.0 | excellent | excellent | – | > 500 | > 2000 | > 500 | > 2000 | – | –
CCC(C)C(=O)OC1CC(C)C=C2C=CC(C)C(CCC(CC(O)CC(=O)O)OP(=O)(O)O)C21 (centres unmarked) [CK3A-Al salt, Aluminum salt of CK3A] | 23.4 | 41.6 | particularly excellent | – | no hygroscopic property | > 500 | > 2000 | > 500 | > 2000 | 98 | –
